# Data as given in patent US11071835B2, “Inhalable medicaments” (PHARMACHEMIE B.V., priority 2013, dated 2021).
# Where a name gives a salt, the structure may show the parent alone.
# Conditions: batch B (formoterol 7544MO) versus batch A (formoterol 7544MA); 160/4.5 μg product; same inhaler, budesonide and lactose
# Experimental: A pharmacokinetic (PK) clinical study was conducted. The PK study assessed a number of key formulation parameters, metered dose (device dose cup volume), formulation blend strength, drug substance particle size and lactose particle size, using a stepwise approach. The PK study was carried out on the middle strength product (160/4.5 μg). […] For both batch A and batch B, the inhaler, the budesonide and the lactose were the same.
compound,measurement,value
"COc1ccc(CC(C)NCC(O)c2ccc(O)c(NC=O)c2)cc1 (stereo not shown) [7544MO, formoterol fumarate dihydrate]",lowering of formoterol Cmax,more than 20%
